# Experimental data taken from patent US12157730B2, “Heteroaryl derivative, method for producing same, and pharmaceutical composition comprising same as effective component” (VORONOI INC., priority 2019, dated 2024).
# Target: T1, Ba/F3 cell EGFR Exon20 ins NPH (Homo sapiens, UniProt P00533, INS773NPH)
# T1 construct: expressed in transfected cells; host or cells: Ba/F3
# Test: Ba/F3 cell proliferation suppression, EGFR Exon20 ins NPH
# Type: cell-based
# Details: GI50 class; Ba/F3 cell line with NPH inserted at Exon20 of EGFR; 72 hours
# Protocol: The following experiment was carried out to evaluate the suppression activity of the compounds according to the present invention against proliferation of Ba/F3 and lung cancer cells which express EGFR mutations.
# Of the cancer cell lines expressing the EGFR gene, A549 was cultured after adding 10% FBS (HyClone) to DMEM (Invitrogen), and RPMI-1640 (Invitrogen) with 10% FBS was used for the other cancer cells. For the Ba/F3 cells, RPMI-1640 with 10% FBS and 5 ng/ml IL-3 (R&D Systems) was used. The transduced Ba/F3 cells were cultured by adding 1 ug/ml puromycin (Invitrogen) to the same medium.
# 24 hours before treatment with the compounds, 3000 to 5000 cells were distributed into each well of a white clear bottom 96 well plate (Corning). The compounds were diluted in dimethylsulfoxide (dilution ratio 3:1; 12 concentrations total) and injected 0.5 ul each for a final concentration of 0.3 nM to 50 um. As for measurement of live cells, 72 hours after treatment with the compounds, a CellTiter-Glo luminescent cell-viability reagent (Promega) was used to store the cells at room temperature for 10 minutes, followed by measurement of luminescence using a reader (SynergyNeo, Biotek). Each test was repeated three times.
# The result was calculated as a cell growth ratio (%) compared to a control. The program GraphPad Prism version 5.0 was used to draw the graphs and calculate the GI50 values.
row,SMILES,Ba/F3 (NPH) Activity
1,"C=CC(=O)Nc1cc(Nc2cc(N3OCC[C@@H]3c3cccc(OC)c3)ncn2)c(OC)cc1N1CCC(N2CCN(CCC)CC2)CC1 [compound 549, N-(4-methoxy-5-((6-((R)-3-(3-methoxyphenyl)isoxazolidine-2-yl)pyrimidine-4-yl)amino)-2-(4-(4-propylpiperazine-1-yl)piperidine-1-yl)phenyl) acrylamide]",A (GI50 < 50 nM)
2,"C=CCN1CCN(C2CCN(c3cc(OC)c(Nc4cc(N5OCC[C@@H]5c5cc(F)ccc5F)ncn4)cc3NC(=O)C=C)CC2)CC1 [Example 88, N-(2-(4-(4-allylpiperazine-1-yl)piperidine-1-yl)-5-((6-((R)-3-(2,5-difluorophenyl)isoxazolidine-2-yl)pyrimidine-4-yl)amino)-4-methoxyphenyl) acrylamide]",A (GI50 < 50 nM)
3,"C=CC(=O)Nc1cc(Nc2cc(N3OCC[C@@H]3c3cccc(Cl)c3F)ncn2)c(OC)cc1N1CCC(N2CCN(C3CC3)[C@H](C)C2)CC1 [Example 180, N-(5-((6-((R)-3-(3-chloro-2-fluorophenyl)isoxazolidine-2-yl)pyrimidine-4-yl)amino)-2-(4-((R)-4-cyclopropyl-3-methylpiperazine-1-yl)piperidine-1-yl)-4-methoxyphenyl) acrylamide]",A (GI50 < 50 nM)
4,"C=CC(=O)Nc1cc(Nc2cc(N3OCC[C@@H]3Cc3cccc(Cl)c3Cl)ncn2)c(OC)cc1N1CCN(C)CC1 [compound 983, N-(5-((6-((S)-3-(2,3-dichlorobenzyl)isoxazolidine-2-yl)pyrimidine-4-yl)amino)-4-methoxy-2-(4-methylpiperazine-1-yl)phenyl)acrylamide]",A (GI50 < 50 nM)
5,"C=CC(=O)Nc1cc(Nc2cc(N3OCC[C@@H]3Cc3cccc(Cl)c3Cl)ncn2)c(OC)cc1N1CCC(N2CCN(C(C)C)CC2)CC1 [compound 1015, N-(5-((6-((S)-3-(2,3-dichlorobenzyl)isoxazolidine-2-yl)pyrimidine-4-yl)amino)-2-(4-(4-isopropylpiperazine-1-yl)piperidine-1-yl)-4-methoxyphenyl) acrylamide]",A (GI50 < 50 nM)
6,"C=CC(=O)Nc1cc(Nc2cc(N3OCC[C@@H]3Cc3ccccc3)ncn2)c(OC)cc1N1CCC(N2CCN(C)CC2)CC1 [compound 963, N-(5-((6-((S)-3-benzylisoxazolidine-2-yl)pyrimidine-4-yl)amino)-4-methoxy-2-(4-(4-methylpiperazine-1-yl)piperidine-1-yl)phenyl)acrylamide]",A (GI50 < 50 nM)
7,"C=CC(=O)Nc1cc(Nc2cc(N3OCC[C@@H]3c3cccc(F)c3)ncn2)c(OC)cc1N1CCC(N2CCN(C)CC2)CC1 [Example 31, N-(5-((6-((R)-3-(3-fluorophenyl)isoxazolidine-2-yl)pyrimidine-4-yl)amino)-4-methoxy-2-(4-(4-methylpiperazine-1-yl)piperidine-1-yl)phenyl) acrylamide]",A (GI50 < 50 nM)
8,"C=CC(=O)Nc1cc(Nc2cc(N3OCC[C@@H]3c3cccc(C#N)c3)ncn2)c(OC)cc1N1CCN(C)CC1 [compound 393, N-(5-((6-((R)-3-(3-cyanophenyl)isoxazolidine-2-yl)pyrimidine-4-yl)amino)-4-methoxy-2-(4-methylpiperazine-1-yl)phenyl)acrylamide]",B (50 nM ≤ GI50 < 500 nM)
9,"C=CC(=O)Nc1cc(Nc2cc(N3OCC[C@@H]3c3ccc(Cl)c(Cl)c3)ncn2)c(OC)cc1N1CCC(N2CCN(C3COC3)CC2)CC1 [compound 931, N-(5-((6-((R)-3-(3,4-dichlorophenyl)isoxazolidine-2-yl)pyrimidine-4-yl)amino)-4-methoxy-2-(4-(4-(oxetane-3-yl)piperazine-1-yl)piperidine-1-yl)phenyl) acrylamide]",A (GI50 < 50 nM)
10,"C=CC(=O)Nc1cc(Nc2cc(N3OCC[C@@H]3c3ccc(F)c(Cl)c3)ncn2)c(OC)cc1N1CCC(N2CCN(C(C)C)CC2)CC1 [compound 715, N-(5-((6-((R)-3-(3-chloro-4-fluorophenyl)isoxazolidine-2-yl)pyrimidine-4-yl)amino)-2-(4-(4-isopropylpiperazine-1-yl)piperidine-1-yl)-4-methoxyphenyl) acrylamide]",A (GI50 < 50 nM)
11,"C=CC(=O)Nc1cc(Nc2cc(N3OCC[C@@H]3c3ccc(F)c(F)c3F)ncn2)c(OC)cc1N1CCC(N2C[C@@H](C)O[C@@H](C)C2)CC1 [compound 576, N-(2-(4-((2S,6R)-2,6-dimethylmorpholino)piperidine-1-yl)-4-methoxy-5-((6-((R)-3-(2,3,4-trifluorophenyl)isoxazolidine-2-yl)pyrimidine-4-yl)amino)phenyl)acrylamide]",A (GI50 < 50 nM)
12,"C=CC(=O)Nc1cc(Nc2cc(N3OCC[C@@H]3c3cc(F)ccc3F)ncn2)c(OC)cc1N1C[C@@H]2CCN(C)[C@@H]2C1 [compound 893, N-(5-((6-((R)-3-(2,5-difluorophenyl)isoxazolidine-2-yl)pyrimidine-4-yl)amino)-4-methoxy-2-((3aS,6aS)-1-methylhexahydropyrrolo [3,4-b]pyrrole-5(1H)-yl)phenyl) acrylamide]",A (GI50 < 50 nM)
13,"C=CC(=O)Nc1cc(Nc2cc(N3OCC[C@@H]3c3cccc(Cl)c3Cl)ncn2)c(OC)cc1N1CCC(N2CCN(C3CC3)CC2)CC1 [Example 162, N-(2-(4-(4-cyclopropylpiperazine-1-yl)piperidine-1-yl)-5-((6-((R)-3-(2,3-dichlorophenyl)isoxazolidine-2-yl)pyrimidine-4-yl)amino)-4-methoxyphenyl) acrylamide]",A (GI50 < 50 nM)
14,"C=CC(=O)Nc1cc(Nc2cc(N3OCC[C@@H]3c3cc(F)ccc3F)ncn2)c(OC)cc1N1CCC(N2CCCN(C3CC3)CC2)CC1 [compound 829, N-(2-(4-(4-cyclopropyl-1,4-diazepane-1-yl)piperidine-1-yl)-5-((6-((R)-3-(2,5-difluorophenyl)isoxazolidine-2-yl)pyrimidine-4-yl)amino)-4-methoxyphenyl) acrylamide]",A (GI50 < 50 nM)
15,"C=CC(=O)Nc1cc(Nc2cc(N3OCC[C@@H]3Cc3cc(F)cc(F)c3)ncn2)c(OC)cc1N1CCC(N2CCN(C3CC3)CC2)CC1 [compound 1033, N-(2-(4-(4-cyclopropylpiperazine-1-yl)piperidine-1-yl)-5-((6-((S)-3-(3,5-difluorobenzyl)isoxazolidine-2-yl)pyrimidine-4-yl)amino)-4-methoxyphenyl) acrylamide]",A (GI50 < 50 nM)
16,"C=CC(=O)Nc1cc(Nc2cc(N3OCC[C@@H]3c3cc(F)cc(F)c3)ncn2)c(OC)cc1N1CCC(N2C[C@H]3CCN(C)[C@H]3C2)CC1 [compound 445, N-(5-((6-((R)-3-(3,5-difluorophenyl)isoxazolidine-2-yl)pyrimidine-4-yl)amino)-4-methoxy-2-(4-((3aR,6aR)-1-methylhexahydropyrrolo [3,4-b]pyrrole-5(1H)-yl)piperidine-1-yl)phenyl)acrylamide]",A (GI50 < 50 nM)
17,"C=CC(=O)Nc1cc(Nc2cc(N3OCC[C@H]3c3c(F)cccc3F)ncn2)c(OC)cc1N1CCC(N(C)C)CC1 [compound 308, N-(5-((6-((S)-3-(2,6-difluorophenyl)isoxazolidine-2-yl)pyrimidine-4-yl)amino)-2-(4-(dimethylamino)piperidine-1-yl)-4-methoxyphenyl) acrylamide]",C (500 nM ≤ GI50 < 5000 nM)
18,"C=CC(=O)Nc1cc(Nc2cc(N3OCC[C@@H]3Cc3cccc(Cl)c3F)ncn2)c(OC)cc1N1CCC(N2CCN(C3CC3)[C@@H](C)C2)CC1 [compound 1018, N-(5-((6-((S)-3-(3-chloro-2-fluorobenzyl)isoxazolidine-2-yl)pyrimidine-4-yl)amino)-2-(4-((S)-4-cyclopropyl-3-methylpiperazine-1-yl)piperidine-1-yl)-4-methoxyphenyl) acrylamide]",A (GI50 < 50 nM)
19,"C=CC(=O)Nc1cc(Nc2cc(N3OCC[C@@H]3Cc3cccc(Cl)c3F)ncn2)c(OC)cc1N1CCC(N2CCN(C3CC3)[C@H](C)C2)CC1 [compound 1019, N-(5-((6-((S)-3-(3-chloro-2-fluorobenzyl)isoxazolidine-2-yl)pyrimidine-4-yl)amino)-2-(4-((R)-4-cyclopropyl-3-methylpiperazine-1-yl)piperidine-1-yl)-4-methoxyphenyl) acrylamide]",A (GI50 < 50 nM)
20,"C=CC(=O)Nc1cc(Nc2cc(N3OCC[C@@H]3c3ccccc3)ncn2)c(OC)cc1N1CCC(N2C[C@@H](C)O[C@@H](C)C2)CC1 [Example 285, N-(2-(4-((2S,6R)-2,6-dimethylmorpholino)piperidine-1-yl)-4-methoxy-5-((6-((R)-3-phenylisoxazolidine-2-yl)pyrimidine-4-yl)amino)phenyl) acrylamide]",A (GI50 < 50 nM)
